Results reported in US8652999B1, “Herbicidal compositions comprising 4-amino-3-chloro-5-fluoro-6-(4-chloro-2-fluoro-3-methoxyphenyl)pyridine-2-carboxylic acid or a derivative thereof and a sulfonylaminocarbonyltriazolinone” (Dow AgroSciences, LLC., priority 2012, dated 2014).

Assays:
Assay type in all cases: in vivo
Conditions in all cases: foliar, 20-22 days
[1] = system: Veronica persica (VERPE); assay: Postemergence herbicidal activity, greenhouse, VERPE
Protocol: (§1) Evaluation of Postemergence Herbicidal Activity of Mixtures in Cereal Crops
(§2) Seeds of the desired test plant species were planted in Sun Gro MetroMix® 306 planting mixture, which typically has a pH of 6.0 to 6.8 and an organic matter content of about 30 percent, in plastic pots with a surface area of 103.2 square centimeters (cm^2). […] The plants were grown for 7-36 days in a greenhouse with an approximate 14 hour photoperiod which was maintained at about 18° C. during the day and 17° C. during the night. Nutrients and water were added on a regular basis and supplemental lighting was provided with overhead metal halide 1000-Watt lamps as necessary. The plants were employed for testing when they reached the second or third true leaf stage.
(§3) Treatments consisted of the benzyl ester of the compound of formula (I) (Compound A as listed in Tables 1-8) and a second cereal herbicide alone and in combination. […] The concentrated stock solutions were diluted to 1.5 mg ai/mL with the addition of 2 volumes of an aqueous mixture containing acetone, water, isopropyl alcohol, DMSO, Agri-dex crop oil concentrate, and Triton® X-77 surfactant in a 64.7:26.0:6.7:2.0:0.7:0.01 v/v ratio. A dilution solution was prepared by mixing 1 volume of 97:3 v/v acetone/DMSO and 2 volumes of an aqueous mixture containing acetone, water, isopropyl alcohol, DMSO, Agri-dex crop oil concentrate, and Triton® X-77 surfactant in a 64.7:26.0:6.7:2.0:0.7:0.01 v/v ratio. Compound requirements are based upon a 12 mL application volume at a rate of 187 liters per hectare (L/ha). […] Formulated compounds were applied to the plant material with an overhead Mandel track sprayer equipped with 8002E nozzles calibrated to deliver 187 L/ha over an application area of 0.503 square meters (m^2) at a spray height of 18 inches (43 cm) above average plant canopy. Control plants were sprayed in the same manner with the solvent blank.
(§4) The treated plants and control plants were placed in a greenhouse as described above and watered by sub-irrigation to prevent wash-off of the test compounds. After 20-22 days, the condition of the test plants as compared with that of the control plants was determined visually and scored on a scale of 0 to 100 percent where 0 corresponds to no injury and 100 corresponds to complete kill.
(§5) Colby's equation was used to determine the herbicidal effects expected from the mixtures (Colby, S. R. 1967. Calculation of the synergistic and antagonistic response of herbicide combinations. Weeds 15:20-22.). Specifically, the following equation was used to calculate the expected activity of mixtures containing two active ingredients, A and B: Expected=A+B−(A×B/100) • A=observed efficacy of active ingredient A at the same concentration as used in the mixture. • B=observed efficacy of active ingredient B at the same concentration as used in the mixture.

[2] = system: Stellaria media (STEME); assay: Postemergence herbicidal activity, greenhouse, STEME
Protocol: as §1, §2, §3, §4, §5

[3] = system: Matricaria chamomila (MATCH); assay: Postemergence herbicidal activity, greenhouse, MATCH
Protocol: as §1, §2, §3, §4, §5

[4] = system: Cirsium arvense (CIRAR); assay: Postemergence herbicidal activity, greenhouse, CIRAR
Protocol: as §1, §2, §3, §4, §5

[5] = system: Alopecurus myosuroides (ALOMY); assay: Postemergence herbicidal activity, greenhouse, ALOMY
Protocol: as §1, §2, §3, §4, §5

[6] = system: Apera spica-venti (APESV); assay: Postemergence herbicidal activity, greenhouse, APESV
Protocol: as §1, §2, §3, §4, §5

[7] = system: Lolium multiflorum subsp. gaudini (LOLMG); assay: Postemergence herbicidal activity, greenhouse, LOLMG
Protocol: as §1, §2, §3, §4, §5

[8] = system: Triticum aestivum (TRZAW); assay: Postemergence herbicidal activity, greenhouse, TRZAW
Protocol: as §1, §2, §3, §4, §5

[9] = system: Papaver rhoeas (PAPRH); assay: Postemergence herbicidal activity, greenhouse, PAPRH
Protocol: as §1, §2, §3, §4, §5

[10] = system: Salsola tragus (SASKR); assay: Postemergence herbicidal activity, greenhouse, SASKR
Protocol: as §1, §2, §3, §4, §5

[11] = system: Viola tricolor (VIOTR); assay: Postemergence herbicidal activity, greenhouse, VIOTR
Protocol: as §1, §2, §3, §4, §5

[12] = system: Lamium purpureum (LAMPU); assay: Postemergence herbicidal activity, greenhouse, LAMPU
Protocol: as §1, §2, §3, §4
(§6) Colby's equation was used to determine the herbicidal effects expected from the mixtures (Colby, S. R. 1967. Calculation of the synergistic and antagonistic response of herbicide combinations. Weeds 15:20-22.). […]

[13] = system: Setaria viridis (SETVI); assay: Postemergence herbicidal activity, greenhouse, SETVI
Protocol: as §1, §2, §3, §4, §6

[14] = system: Kochia scoparia (KCHSC); assay: Postemergence herbicidal activity, greenhouse, KCHSC
Protocol: as §1, §2, §3, §4, §5

[15] = system: Triticum aestivum (TRZAS); assay: Postemergence herbicidal activity, greenhouse, TRZAS
Protocol: as §1, §2
(§7) Treatments consisted of the benzyl ester of the compound of formula (I) (Compound A as listed in Tables 1-8) and a second cereal herbicide alone and in combination. […]
(§8) The treated plants and control plants were placed in a greenhouse as described above and watered by sub-irrigation to prevent wash-off of the test compounds. After 20-22 days, the condition of the test plants as compared with that of the control plants was determined visually and scored on a scale of 0 to 100 percent where 0 corresponds to no injury and 100 corresponds to complete kill. […]

[16] = system: Hordeum vulgare (HORVS); assay: Postemergence herbicidal activity, greenhouse, HORVS
Protocol: as §1, §2, §7, §8

[17] = system: Galium aparine (GALAP); assay: Postemergence herbicidal activity, greenhouse, GALAP
Protocol: as §1, §2, §7, §8

[18] = system: Chenopodium album (CHEAL); assay: Postemergence herbicidal activity, greenhouse, CHEAL
Protocol: as §1, §2, §7, §8

COc1c(Cl)ccc(-c2nc(C(=O)OCc3ccccc3)c(Cl)c(N)c2F)c1F [Compound A, benzyl ester of 4-amino-3-chloro-5-fluoro-6-(4-chloro-2-fluoro-3-methoxyphenyl)pyridine-2-carboxylic acid]
VERPE Obs ([1]; Compound A 5 g ai/ha): 13% | VERPE Obs ([1]; Compound A 8.75 g/ha): 50% | VERPE Obs ([1]; Compound A 10 g ai/ha): 25% | STEME Obs ([2]; Compound A 5 g ai/ha): 50% | STEME Obs ([2]; Compound A 8.75 g/ha): 68% | STEME Obs ([2]; Compound A 10 g ai/ha): 63% | MATCH Obs ([3]; Compound A 2.5 g ha): 0% | MATCH Obs ([3]; Compound A 5 g ai/ha): 20% | MATCH Obs ([3]; Compound A 5 g ha): 10% | MATCH Obs ([3]; Compound A 8.75 g/ha): 20% | MATCH Obs ([3]; Compound A 10 g ai/ha): 40% | CIRAR Obs ([4]; Compound A 2.5 g ha): 10% | CIRAR Obs ([4]; Compound A 5 g ha): 20% | CIRAR Obs ([4]; Compound A 8.75 g/ha): 40% | ALOMY Obs ([5]; Compound A 5 g ha): 0% | ALOMY Obs ([5]; Compound A 5 g/ha): 0% | ALOMY Obs ([5]; Compound A 10 g ha): 0% | ALOMY Obs ([5]; Compound A 10 g/ha): 0% | APESV Obs ([6]; Compound A 5 g ha): 0% | APESV Obs ([6]; Compound A 5 g/ha): 0% | APESV Obs ([6]; Compound A 10 g ha): 0% | APESV Obs ([6]; Compound A 10 g/ha): 0% | LOLMG Obs ([7]; Compound A 5 g ha): 0% | LOLMG Obs ([7]; Compound A 5 g/ha): 0% | LOLMG Obs ([7]; Compound A 10 g ha): 0% | LOLMG Obs ([7]; Compound A 10 g/ha): 0% | TRZAW Obs ([8]; Compound A 5 g ai/ha): 7% | TRZAW Obs ([8]; Compound A 10 g ai/ha): 7% | PAPRH Obs ([9]; Compound A 5 g ai/ha): 46% | PAPRH Obs ([9]; Compound A 10 g ai/ha): 48% | SASKR Obs ([10]; Compound A 2.5 g ha): 10% | SASKR Obs ([10]; Compound A 5 g ai/ha): 75% | SASKR Obs ([10]; Compound A 5 g ha): 60% | SASKR Obs ([10]; Compound A 10 g ai/ha): 78% | VIOTR Obs ([11]; Compound A 2.5 g ha): 10% | VIOTR Obs ([11]; Compound A 5 g ai/ha): 27% | VIOTR Obs ([11]; Compound A 5 g ha): 10% | VIOTR Obs ([11]; Compound A 10 g ai/ha): 37% | LAMPU Obs ([12]; Compound A 2.5 g ha): 80% | LAMPU Obs ([12]; Compound A 5 g ha): 80% | LAMPU Obs ([12]; Compound A 8.75 g/ha): 83% | SETVI Obs ([13]; Compound A 5 g ha): 0% | SETVI Obs ([13]; Compound A 10 g ha): 0% | KCHSC Obs ([14]; Compound A 2.5 g ha): 20% | KCHSC Obs ([14]; Compound A 5 g ai/ha): 60% | KCHSC Obs ([14]; Compound A 5 g ha): 40% | KCHSC Obs ([14]; Compound A 10 g ai/ha): 57% | TRZAS Obs ([15]; Compound A 2.5 g ha): 0% | TRZAS Obs ([15]; Compound A 5 g ha): 5% | HORVS Obs ([16]; Compound A 2.5 g ha): 0% | HORVS Obs ([16]; Compound A 5 g ha): 0% | GALAP Obs ([17]; Compound A 2.5 g ha): 60% | GALAP Obs ([17]; Compound A 5 g ha): 60% | CHEAL Obs ([18]; Compound A 2.5 g ha): 50% | CHEAL Obs ([18]; Compound A 5 g ha): 60%
